ChEMBL document CHEMBL4414595, “Tripterfordins A-O, Dihydro-β-agarofuran Sesquiterpenoids from the Leaves of Tripterygium wilfordii” (J Nat Prod, 2019)

System: RAW264.7
Assay: Anti-inflammatory activity in mouse RAW264.7 cells assessed as inhibition of LPS-induced NO production by Griess assay
Assay type: functional, cell-based

SMILES | IC50
CC(=O)OC[C@]12[C@H](OC(C)=O)[C@@H](OC(C)=O)[C@@H]3[C@@H](O)[C@]1(OC3(C)C)[C@@](C)(O)C[C@H](OC(C)=O)[C@@H]2OC(=O)/C=C\c1ccccc1 | 31 µM
CC(=O)OC[C@]12[C@H](OC(C)=O)C(=O)[C@@H]3C[C@]1(OC3(C)C)[C@@](C)(O)C[C@H](OC(C)=O)[C@@H]2OC(=O)/C=C/c1ccccc1 | > 100 µM
CC(=O)OC[C@]12[C@H](OC(C)=O)C(=O)[C@@H]3[C@@H](O)[C@]1(OC3(C)C)[C@@](C)(O)C[C@H](OC(C)=O)[C@@H]2OC(=O)/C=C/c1ccccc1 | > 100 µM
CC(=O)OC[C@]12[C@H](OC(C)=O)[C@@H](OC(C)=O)[C@@H]3[C@@H](OC(C)=O)[C@]1(OC3(C)C)[C@@](C)(O)C[C@H](OC(C)=O)[C@@H]2OC(=O)/C=C\c1ccccc1 | > 100 µM
CC(=O)OC[C@]12[C@H](OC(C)=O)[C@@H](OC(C)=O)[C@@H]3C[C@]1(OC3(C)C)[C@@](C)(O)C[C@H](OC(C)=O)[C@@H]2OC(=O)/C=C\c1ccccc1 | 19.1 µM
CC(=O)OC[C@]12[C@H](OC(C)=O)[C@@H](OC(C)=O)[C@@H]3[C@@H](O)[C@]1(OC3(C)C)[C@H](C)[C@@H](O)[C@H](OC(C)=O)[C@@H]2OC(=O)/C=C/c1ccccc1 | > 100 µM
CC(=O)OC[C@]12[C@H](OC(C)=O)[C@@H](O)[C@@H]3[C@@H](O)[C@]1(OC3(C)C)[C@@](C)(O)C[C@H](O)[C@@H]2OC(=O)/C=C/c1ccccc1 | > 100 µM
CC(=O)OC[C@]12[C@H](OC(C)=O)[C@@H](OC(C)=O)[C@@H]3[C@@H](O)[C@]1(OC3(C)C)[C@H](C)C[C@H](OC(C)=O)[C@@H]2OC(=O)/C=C/c1ccccc1 | 11.9 µM
CC(=O)OC[C@]12[C@H](OC(C)=O)[C@@H](OC(C)=O)[C@@H]3[C@@H](O)[C@]1(OC3(C)C)[C@@](C)(O)[C@@H](O)[C@H](OC(C)=O)[C@@H]2OC(=O)/C=C/c1ccccc1 | 53.7 µM
CC(=O)OC[C@]12[C@H](OC(C)=O)[C@@H](OC(C)=O)[C@@H]3C[C@]1(OC3(C)C)[C@@](C)(O)C[C@H](OC(C)=O)[C@@H]2OC(=O)/C=C/c1ccccc1 | > 100 µM
CC(=O)OC[C@]12[C@H](OC(C)=O)[C@@H](OC(C)=O)[C@@H]3C[C@]1(OC3(C)C)[C@H](C)C[C@H](OC(C)=O)[C@@H]2OC(=O)/C=C\c1ccccc1 | > 100 µM
CC(=O)OC[C@]12[C@H](OC(C)=O)[C@@H](OC(C)=O)[C@@H]3[C@@H](O)[C@]1(OC3(C)C)[C@@](C)(O)C[C@H](OC(C)=O)[C@@H]2OC(=O)/C=C/c1ccccc1 | 24.2 µM
CC(=O)OC[C@]12[C@H](OC(C)=O)[C@@H](OC(C)=O)[C@@H]3C[C@]1(OC3(C)C)[C@H](C)C[C@H](OC(C)=O)[C@@H]2OC(=O)/C=C/c1ccccc1 | > 100 µM
CC(=O)OC[C@]12[C@H](OC(C)=O)[C@@H](OC(C)=O)[C@@H]3[C@@H](O)[C@]1(OC3(C)C)[C@H](C)C[C@H](OC(C)=O)[C@@H]2OC(=O)/C=C\c1ccccc1 | 28.2 µM
CC(=O)O[C@H]1C[C@@H](C)[C@]23OC(C)(C)[C@H]([C@H](O)[C@@H](OC(=O)c4ccccc4)[C@]2(CO)[C@H]1OC(=O)/C=C/c1ccccc1)[C@H]3OC(C)=O | > 100 µM
C[C@]12CCC(=O)C=C1CC[C@@H]1[C@@H]2[C@@H](O)C[C@@]2(C)[C@H]1CC[C@]2(O)C(=O)COC(=O)CCC(=O)O [HYDROCORTISONE SODIUM SUCCINATE] | 42.4 µM
